Molecules are shown by their SMILES. Values after ≈ are worked out from the molar mass of the structure shown.

Experiment [1] deals with Bacillus anthracis. Description: microbe, parasite or virus in culture. The conditions noted are these: BA103.
Experiment [2] deals with Bacillus anthracis. Put plainly: microbe, parasite or virus in culture. The conditions noted are these: BA104.

`O=C(O)c1cn(C2CC2)c2cc(N3CCNCC3)c(F)cc2c1=O` [CIPROFLOXACIN]: the MIC in the experiment with Bacillus anthracis [1] and with Bacillus anthracis [2] was 0.064 µg/mL (≈ 0.193 µM) in each case.

Values taken from ChEMBL document CHEMBL1275593 (2010).
